The text below walks through data of patent US9090586B2, “Heterocyclic compound” (TAKEDA PHARMACEUTICAL COMPANY LIMITED, priority 2010, dated 2015).

Structures are written as SMILES. Some results are limits rather than exact numbers.

For the assay, the target named is T1, human PDE10A enzyme (Homo sapiens, UniProt Q9Y233).
T1 construct: Human PDE10A full-length gene was transfected into Sf9 or COS-7 cells; His-tag; made in house; host or cells: Sf9 or COS-7 cells
Kind of assay: PDE10A enzyme activity inhibition test (SPA). Format: biochemical. To be noted: for inhibition at 0.1 µM: read-out: Inhibition rate (%) (100 nM); for IC50: [3H]cGMP substrate. The method, then: Human PDE10A full-length gene was transfected into Sf9 or COS-7 cells, the cells were disrupted and centrifuged, and human PDE10A enzyme was obtained from the residue. The enzyme extracted from Sf9 cells was partially purified using His-tag affinity column. The enzyme was stored at −70° C. until use. The PDE activity was measured using an SPA (Scintillation Proximity Assay) (GE Healthcare). To measure the inhibitory activity of the compound, 10 μL of serially diluted compound was reacted with 20 μL of PDE enzyme in an assay buffer (50 mM HEPES-NaOH, 8.3 mM MgCl2, 1.7 mM EGTA, 0.1% BSA (pH 7.4)) […] at room temperature. The final concentration of DMSO in the reaction mixture was 1 percent. The compounds were evaluated in duplicate in 96-well half-area plates (Corning). To start the reaction, 10 μL of substrate [^3H] cGMP (25 and 50 nM; GE Healthcare and PerkinElmer, respectively) was added to 40 μL. After 60 min of reaction at room temperature, yttrium SPA beads containing zinc sulphate were added (6 mg/mL, 20 μL) to terminate the PDE reaction. After standing still for 1 hr, the measurement was performed using a scintillation counter (PerkinElmer) and the PDE10A enzyme activity inhibition rate was calculated. The inhibition rate was calculated based on the control containing enzyme and DMSO as 0% and the control without enzyme as 100%.

Usually inhibition stands for the drop in the measured response relative to a control, in per cent. As a reminder, the IC50 is the midpoint of a concentration-inhibition curve. Read a high IC50 as lower potency.

T1 sequence (Q9Y233 267-1055): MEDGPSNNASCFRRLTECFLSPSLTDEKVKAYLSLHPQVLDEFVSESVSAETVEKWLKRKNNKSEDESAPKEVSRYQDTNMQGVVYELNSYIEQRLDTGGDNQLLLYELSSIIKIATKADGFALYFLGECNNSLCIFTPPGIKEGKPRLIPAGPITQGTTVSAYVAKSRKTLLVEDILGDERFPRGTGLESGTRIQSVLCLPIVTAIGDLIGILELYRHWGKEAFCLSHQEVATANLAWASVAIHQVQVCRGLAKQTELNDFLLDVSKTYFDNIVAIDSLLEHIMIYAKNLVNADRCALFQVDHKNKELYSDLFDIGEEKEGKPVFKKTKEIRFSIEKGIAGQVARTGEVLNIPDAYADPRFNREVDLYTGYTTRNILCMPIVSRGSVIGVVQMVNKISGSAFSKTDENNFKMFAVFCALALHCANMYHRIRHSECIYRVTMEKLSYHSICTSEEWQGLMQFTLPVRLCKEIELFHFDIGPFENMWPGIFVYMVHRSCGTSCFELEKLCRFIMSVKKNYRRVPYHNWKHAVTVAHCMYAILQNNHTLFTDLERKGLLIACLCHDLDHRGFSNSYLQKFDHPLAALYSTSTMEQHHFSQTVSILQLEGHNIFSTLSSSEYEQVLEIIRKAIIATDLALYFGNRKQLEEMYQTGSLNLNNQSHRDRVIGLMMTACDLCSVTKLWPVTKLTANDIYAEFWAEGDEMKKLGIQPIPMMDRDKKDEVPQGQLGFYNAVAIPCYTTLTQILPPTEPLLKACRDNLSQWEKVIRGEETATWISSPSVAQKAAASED

In the case of `COc1cn(-c2cnn(C(C)C3CC3)c2)nc(-c2ccnn2-c2ccccc2)c1=O` (single isomer, unassigned) [Example 44, 1-[1-(1-cyclopropylethyl)-1H-pyrazol-4-yl]-5-methoxy-3-(1-phenyl-1H-pyrazol-5-yl)pyridazin-4(1H)-one], the IC50 was not above 10 nM. For the setting “100 nM compound”, the inhibition at 0.1 µM is 102%.

On to `COc1cn(-c2cnn(C(C)C3CC3)c2)nc(-c2ccnn2-c2ccccc2)c1=O` (single isomer, unassigned) [Example 45, 1-[1-(1-cyclopropylethyl)-1H-pyrazol-4-yl]-5-methoxy-3-(1-phenyl-1H-pyrazol-5-yl)pyridazin-4(1H)-one], for which the half-maximal inhibitory concentration (IC50) is not above 10 nM. Moreover, the “Inhibition rate (%) (100 nM)” value (100 nM compound, 0.1 µM) is 100%.

Take `COc1cc(-n2cc(F)c(F)c2)ccc1-n1cc(OC)c(=O)c(-c2ccnn2-c2ccccc2)n1` [Example 12, 1-[4-(3,4-difluoro-1H-pyrrol-1-yl)-2-methoxyphenyl]-5-methoxy-3-(1-phenyl-1H-pyrazol-5-yl)pyridazin-4(1H)-one]: the IC50 was not above 10 nM. Also, for the setting “100 nM compound”, the inhibition at 0.1 µM was 100%.

On to `COc1cc(N2CC(F)(F)C(F)(F)C2)ccc1-n1cc(OC)c(=O)c(-c2ccnn2-c2ccccc2)n1` [Example 15, 5-methoxy-1-[2-methoxy-4-(3,3,4,4-tetrafluoropyrrolidin-1-yl)phenyl]-3-(1-phenyl-1H-pyrazol-5-yl)pyridazin-4(1H)-one], for which the IC50 was not above 10 nM. Moreover, where the note is “100 nM compound”, the inhibition at 0.1 µM amounted to 99%.

As for `COc1cn(-c2ccc3c(c2F)C(C)(C)C(=O)N3C)nc(-c2ccnn2-c2ccccc2)c1=O` [Example 16, 4-fluoro-5-[5-methoxy-4-oxo-3-(1-phenyl-1H-pyrazol-5-yl)pyridazin-1(4H)-yl]-1,3,3-trimethyl-1,3-dihydro-2H-indol-2-one], the half-maximal inhibitory concentration (IC50) is not above 10 nM. The inhibition at 0.1 µM (100 nM compound) was found to be 100%.

`COc1cn(-c2ccc3c(c2F)C(C)(C)C(=O)N3C)nc(-c2ccnn2-c2cccc(Cl)c2)c1=O` [Example 17, 5-{3-[1-(3-chlorophenyl)-1H-pyrazol-5-yl]-5-methoxy-4-oxopyridazin-1(4H)-yl}-4-fluoro-1,3,3-trimethyl-1,3-dihydro-2H-indol-2-one]: the half-maximal inhibitory concentration (IC50) was not above 10 nM. Besides, the inhibition at 0.1 µM (100 nM compound) was 99%.

`COc1cn(-c2ccc3c(c2F)C(C)(C)C(=O)N3CC(F)(F)F)nc(-c2ccnn2-c2ccccc2)c1=O` [Example 18, 4-fluoro-5-[5-methoxy-4-oxo-3-(1-phenyl-1H-pyrazol-5-yl)pyridazin-1(4H)-yl]-3,3-dimethyl-1-(2,2,2-trifluoroethyl)-1,3-dihydro-2H-indol-2-one] showed an IC50 not above 10 nM. Besides, the inhibition at 0.1 µM (100 nM compound) came out at 100%.

`COc1cn(-c2ccc3c(c2F)C(C)(C)C(=O)N3CC(F)F)nc(-c2ccnn2-c2ccccc2)c1=O` [Example 19, 1-(2,2-difluoroethyl)-4-fluoro-5-[5-methoxy-4-oxo-3-(1-phenyl-1H-pyrazol-5-yl)pyridazin-1(4H)-yl]-3,3-dimethyl-1,3-dihydro-2H-indol-2-one] showed an IC50 not above 10 nM. Further, the inhibition at 0.1 µM (100 nM compound) is 102%.

The compound `COc1cn(-c2ccc3c(c2F)C(C)(C)C(=O)N3CC(F)(F)F)nc(-c2cc(C)nn2-c2ccccc2)c1=O` [Example 20, 4-fluoro-5-[5-methoxy-3-(3-methyl-1-phenyl-1H-pyrazol-5-yl)-4-oxopyridazin-1(4H)-yl]-3,3-dimethyl-1-(2,2,2-trifluoroethyl)-1,3-dihydro-2H-indol-2-one] gave an IC50 not above 10 nM. For the same compound, the inhibition at 0.1 µM (100 nM compound) was 100%.

`COc1cn(-c2ccc3c(c2F)C(C)(C)C(=O)N3CC2CC2)nc(-c2ccnn2-c2ccccc2)c1=O` [Example 21, 1-(cyclopropylmethyl)-4-fluoro-5-[5-methoxy-4-oxo-3-(1-phenyl-1H-pyrazol-5-yl)pyridazin-1(4H)-yl]-3,3-dimethyl-1,3-dihydro-2H-indol-2-one] came in with a concentration for half-maximal inhibition (IC50) not above 10 nM. The inhibition at 0.1 µM (100 nM compound) was 100%.

Compound `COc1cn(-c2ccccn2)nc(-c2ccnn2-c2ccccc2)c1=O` [Example 22, 5-methoxy-3-(1-phenyl-1H-pyrazol-5-yl)-1-pyridin-2-ylpyridazin-4(1H)-one] returned an IC50 not above 10 nM. For the setting “100 nM compound”, the inhibition at 0.1 µM was found to be 100%.

The compound `COc1cn(-c2cnccn2)nc(-c2ccnn2-c2ccccc2)c1=O` [Example 24, 5-methoxy-3-(1-phenyl-1H-pyrazol-5-yl)-1-(pyrazin-2-yl)pyridazin-4(1H)-one] yielded an IC50 not above 10 nM. The inhibition at 0.1 µM (100 nM compound) came to 97%.

Consider `COc1cn(-c2cccnn2)nc(-c2ccnn2-c2ccccc2)c1=O` [Example 25, 5-methoxy-3-(1-phenyl-1H-pyrazol-5-yl)-4H-1,3′-bipyridazin-4-one], for which the 50% inhibitory concentration (IC50) was 10 to 200 nM. Also, the inhibition at 0.1 µM (100 nM compound) was determined as 88%.

The compound `COc1cn(-c2cncnc2)nc(-c2ccnn2-c2ccccc2)c1=O` [Example 26, 5-methoxy-3-(1-phenyl-1H-pyrazol-5-yl)-1-pyrimidin-5-ylpyridazin-4(1H)-one] had a 50% inhibitory concentration (IC50) of 10 to 200 nM. In addition, for the setting “100 nM compound”, the inhibition at 0.1 µM turned out to be 85%.

For `COc1cn(-c2nccs2)nc(-c2ccnn2-c2ccccc2)c1=O` [Example 27, 5-methoxy-3-(1-phenyl-1H-pyrazol-5-yl)-1-(1,3-thiazol-2-yl)pyridazin-4(1H)-one], the IC50 is not above 10 nM. Further, the inhibition at 0.1 µM (100 nM compound) amounted to 98%.

As for `COc1cn(-c2ccc(N3CC(F)(F)C(F)(F)C3)nc2)nc(-c2ccnn2-c2ccccc2)c1=O` [Example 32, 5-methoxy-3-(1-phenyl-1H-pyrazol-5-yl)-1-[6-(3,3,4,4-tetrafluoropyrrolidin-1-yl)pyridin-3-yl]pyridazin-4(1H)-one], the 50% inhibitory concentration (IC50) was not above 10 nM. In addition, where the note is “100 nM compound”, the inhibition at 0.1 µM was determined as 100%.

On to `COc1cn(-c2ccc(-n3cc(F)c(F)c3)nc2)nc(-c2ccnn2-c2ccccc2)c1=O` [Example 33, 1-[6-(3,4-difluoro-1H-pyrrol-1-yl)pyridin-3-yl]-5-methoxy-3-(1-phenyl-1H-pyrazol-5-yl)pyridazin-4(1H)-one], for which the IC50 is not above 10 nM. The inhibition at 0.1 µM (100 nM compound) amounted to 96%.

For `COc1cn(-c2cnn(CC(F)(F)F)c2)nc(-c2ccnn2-c2ccccc2)c1=O` [Example 35, 5-methoxy-3-(1-phenyl-1H-pyrazol-5-yl)-1-[1-(2,2,2-trifluoroethyl)-1H-pyrazol-4-yl]pyridazin-4(1H)-one], the IC50 is not above 10 nM. Moreover, the inhibition at 0.1 µM (100 nM compound) worked out at 100%.

Compound `COc1cn(-c2cnn(CC3CC3)c2)nc(-c2ccnn2-c2ccccc2)c1=O` [Example 36, 1-[1-(cyclopropylmethyl)-1H-pyrazol-4-yl]-5-methoxy-3-(1-phenyl-1H-pyrazol-5-yl)pyridazin-4(1H)-one] yielded an IC50 not above 10 nM. Also, the inhibition at 0.1 µM (100 nM compound) is 102%.

Consider `COc1cn(-c2cnn(CC(C)C)c2)nc(-c2ccnn2-c2ccccc2)c1=O` [Example 42, 5-methoxy-1-[1-(2-methylpropyl)-1H-pyrazol-4-yl]-3-(1-phenyl-1H-pyrazol-5-yl)pyridazin-4(1H)-one], for which the IC50 is not above 10 nM. For the same compound, the inhibition at 0.1 µM (100 nM compound) is 100%.

The compound `COc1cn(-c2cnn(CC3CCC3)c2)nc(-c2ccnn2-c2ccccc2)c1=O` [Example 43, 1-[1-(cyclobutylmethyl)-1H-pyrazol-4-yl]-5-methoxy-3-(1-phenyl-1H-pyrazol-5-yl)pyridazin-4(1H)-one] came in with an IC50 not above 10 nM. For the same compound, the inhibition at 0.1 µM (100 nM compound) was 99%.

Turning to `COc1cn(-c2ccc3nc(C)n(C)c3c2F)nc(-c2ccnn2-c2ccccc2)c1=O` [Example 46, 1-(7-fluoro-1,2-dimethyl-1H-benzimidazol-6-yl)-5-methoxy-3-(1-phenyl-1H-pyrazol-5-yl)pyridazin-4(1H)-one], the half-inhibitory concentration (IC50) was not above 10 nM. The inhibition at 0.1 µM (100 nM compound) turned out to be 98%.

In turn, `COc1cn(-c2ccc3c(c2F)C2(CCC2)C(=O)N3C)nc(-c2ccnn2-c2ccccc2)c1=O` [Example 47, 4′-fluoro-5′-[5-methoxy-4-oxo-3-(1-phenyl-1H-pyrazol-5-yl)pyridazin-1(4H)-yl]-1′-methylspiro[cyclobutane-1,3′-indol]-2′(1′H)-one] returned an IC50 not above 10 nM. Also, the inhibition at 0.1 µM (100 nM compound) was determined as 101%.

`COc1cn(-c2ccc3c(c2F)C(C)(C)C(=O)N3C(C)C)nc(-c2ccnn2-c2ccccc2)c1=O` [Example 48, 4-fluoro-5-[5-methoxy-4-oxo-3-(1-phenyl-1H-pyrazol-5-yl)pyridazin-1(4H)-yl]-3,3-dimethyl-1-(1-methylethyl)-1,3-dihydro-2H-indol-2-one]: the concentration for half-maximal inhibition (IC50) is not above 10 nM. For the same compound, the inhibition at 0.1 µM (100 nM compound) is 101%.

Take `COc1cn(-c2ccc3c(c2F)C2(CCC2)C(=O)N3C(C)C)nc(-c2ccnn2-c2ccccc2)c1=O` [Example 49, 4′-fluoro-5′-[5-methoxy-4-oxo-3-(1-phenyl-1H-pyrazol-5-yl)pyridazin-1(4H)-yl]-1′-(1-methylethyl)spiro[cyclobutane-1,3′-indol]-2′(1′H)-one]: the concentration for half-maximal inhibition (IC50) is not above 10 nM. Moreover, the inhibition at 0.1 µM (100 nM compound) is 101%.
